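The compound was tested at five concentrations on cells cultured in 96-well plates, with a 48-hour exposure period. At the GI50, growth is halved. Definition used: TGI = concentration required for complete inhibition of growth.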
Experiments:
Experiment in all cases: NCI anticancer screen, dose series, 48 h
[1] = tested on: 786-0 renal
[2] = tested on: A498 renal
[3] = tested on: A549 NSCLC
[4] = tested on: ACHN renal
[5] = tested on: BT-549 breast
[6] = tested on: CAKI-1 renal
[7] = tested on: CCRF-CEM leukemia
[8] = tested on: COLO 205 colon
[9] = tested on: DU-145 prostate
[10] = tested on: HCC-2998 colon
[11] = tested on: HCT-116 colon
[12] = tested on: HCT-15 colon
[13] = tested on: HL-60(TB) leukemia
[14] = tested on: HOP-62 NSCLC
[15] = tested on: HOP-92 NSCLC
[16] = tested on: HS 578T breast
[17] = tested on: HT29 colon
[18] = tested on: IGROV1 ovarian
[19] = tested on: K-562 leukemia
[20] = tested on: KM12 colon
[21] = tested on: LOX IMVI melanoma
[22] = tested on: M14 melanoma
[23] = tested on: MALME-3M melanoma
[24] = tested on: MCF7 breast
[25] = tested on: MDA-MB-231 breast
[26] = tested on: MDA-MB-435
[27] = tested on: MOLT-4 leukemia
[28] = tested on: NCI-H226 lung
[29] = tested on: NCI-H23 lung
[30] = tested on: NCI-H460 lung
[31] = tested on: NCI-H522 lung
[32] = tested on: NCI/ADR-RES ovarian
[33] = tested on: OVCAR-3 ovarian
[34] = tested on: OVCAR-4 ovarian
[35] = tested on: OVCAR-5 ovarian
[36] = tested on: OVCAR-8 ovarian
[37] = tested on: PC-3 prostate
[38] = tested on: RPMI-8226 leukemia
[39] = tested on: RXF 393 renal
[40] = tested on: SF-268 CNS
[41] = tested on: SF-295 CNS
[42] = tested on: SF-539 CNS
[43] = tested on: SK-MEL-2 melanoma
[44] = tested on: SK-MEL-28 melanoma
[45] = tested on: SK-MEL-5 melanoma
[46] = tested on: SK-OV-3 ovarian
[47] = tested on: SN12C renal
[48] = tested on: SNB-19 CNS
[49] = tested on: SNB-75 CNS
[50] = tested on: SR leukemia
[51] = tested on: SW-620 colon
[52] = tested on: T-47D breast
[53] = tested on: TK-10 renal
[54] = tested on: U251 CNS
[55] = tested on: UACC-257 melanoma
[56] = tested on: UACC-62 melanoma
[57] = tested on: UO-31 renal

SMILES: O=C1NC(O)C(c2c[nH]c3ccccc23)=C1c1c[nH]c2ccccc12 (centres undefined)
- GI50 [1]: > 25 µM
- TGI [1]: > 25 µM
- GI50 [2]: > 25 µM
- TGI [2]: > 25 µM
- GI50 [3]: > 25 µM
- TGI [3]: > 25 µM
- GI50 [4]: > 25 µM
- TGI [4]: > 25 µM
- GI50 [5]: > 25 µM
- TGI [5]: > 25 µM
- GI50 [6]: > 25 µM
- TGI [6]: > 25 µM
- GI50 [7]: > 25 µM
- TGI [7]: > 25 µM
- GI50 [8]: > 25 µM
- TGI [8]: > 25 µM
- GI50 [9]: > 25 µM
- TGI [9]: > 25 µM
- GI50 [10]: > 25 µM
- TGI [10]: > 25 µM
- GI50 [11]: > 25 µM
- TGI [11]: > 25 µM
- GI50 [12]: 18.4 µM
- TGI [12]: > 25 µM
- GI50 [13]: > 25 µM
- TGI [13]: > 25 µM
- GI50 [14]: > 25 µM
- TGI [14]: > 25 µM
- GI50 [15]: 4.42 µM
- TGI [15]: > 25 µM
- GI50 [16]: 25 µM
- TGI [16]: > 25 µM
- GI50 [17]: > 25 µM
- TGI [17]: > 25 µM
- GI50 [18]: > 25 µM
- TGI [18]: > 25 µM
- GI50 [19]: > 21.9 µM
- TGI [19]: > 25 µM
- GI50 [20]: > 25 µM
- TGI [20]: > 25 µM
- GI50 [21]: > 22.5 µM
- TGI [21]: > 25 µM
- GI50 [22]: > 25 µM
- TGI [22]: > 25 µM
- GI50 [23]: > 25 µM
- TGI [23]: > 25 µM
- GI50 [24]: > 25 µM
- TGI [24]: > 25 µM
- GI50 [25]: > 16.5 µM
- TGI [25]: > 25 µM
- GI50 [26]: > 25 µM
- TGI [26]: > 25 µM
- GI50 [27]: > 25 µM
- TGI [27]: > 25 µM
- GI50 [28]: > 25 µM
- TGI [28]: > 25 µM
- GI50 [29]: > 25 µM
- TGI [29]: > 25 µM
- GI50 [30]: > 25 µM
- TGI [30]: > 25 µM
- GI50 [31]: > 25 µM
- TGI [31]: > 25 µM
- GI50 [32]: > 25 µM
- TGI [32]: > 25 µM
- GI50 [33]: > 25 µM
- TGI [33]: > 25 µM
- GI50 [34]: > 25 µM
- TGI [34]: > 25 µM
- GI50 [35]: > 25 µM
- TGI [35]: > 25 µM
- GI50 [36]: > 25 µM
- TGI [36]: > 25 µM
- GI50 [37]: 24.8 µM
- TGI [37]: > 25 µM
- GI50 [38]: > 25 µM
- TGI [38]: > 25 µM
- GI50 [39]: > 25 µM
- TGI [39]: > 25 µM
- GI50 [40]: > 25 µM
- TGI [40]: > 25 µM
- GI50 [41]: > 25 µM
- TGI [41]: > 25 µM
- GI50 [42]: > 25 µM
- TGI [42]: > 25 µM
- GI50 [43]: > 25 µM
- TGI [43]: > 25 µM
- GI50 [44]: > 25 µM
- TGI [44]: > 25 µM
- GI50 [45]: > 25 µM
- TGI [45]: > 25 µM
- GI50 [46]: > 25 µM
- TGI [46]: > 25 µM
- GI50 [47]: > 25 µM
- TGI [47]: > 25 µM
- GI50 [48]: > 25 µM
- TGI [48]: > 25 µM
- GI50 [49]: > 25 µM
- TGI [49]: > 25 µM
- GI50 [50]: > 23.7 µM
- TGI [50]: > 25 µM
- GI50 [51]: > 25 µM
- TGI [51]: > 25 µM
- GI50 [52]: > 25 µM
- TGI [52]: > 25 µM
- GI50 [53]: > 25 µM
- TGI [53]: > 25 µM
- GI50 [54]: > 25 µM
- TGI [54]: > 25 µM
- GI50 [55]: > 25 µM
- TGI [55]: > 25 µM
- GI50 [56]: 8.01 µM
- TGI [56]: > 25 µM
- GI50 [57]: 15.7 µM
- TGI [57]: > 25 µM

From PubChem BioAssay (NCI)
